Experimental data reported in the supplement of paper PMC10307832.

Columns and labels:
Test in all cases: relative viability (nuclei count vs DMSO), 5 days (fraction); higher = more cells survive
BEN = tested on: BEN
In short: (§1)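 One day after seeding in 1536-well plates, lung cancer cell lines were dosed by pin tool. Dosing was either single-drug or a fixed anchor-drug dose plus five library-drug doses (not always all listed) in √10 steps. After 5 days, nuclei were stained in one fix-and-stain step and counted on 4× images, and relative viability is the nuclei count of treated wells over that of vehicle wells, given as the median of duplicate plates.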

HCC-78 = tested on: HCC-78
In short: as §1

LC-2-ad = tested on: LC-2-ad
In short: as §1

LCLC-97TM1 = tested on: LCLC-97TM1
In short: as §1

LK-2 = tested on: LK-2
In short: as §1

LU99A = tested on: LU99A
In short: as §1

LXF-289 = tested on: LXF-289
In short: as §1

NCI-H1355 = tested on: NCI-H1355
In short: as §1

NCI-H1651 = tested on: NCI-H1651
In short: as §1

NCI-H1666 = tested on: NCI-H1666
In short: as §1

NCI-H1944 = tested on: NCI-H1944
In short: as §1

NCI-H1975 = tested on: NCI-H1975
In short: as §1

NCI-H2087 = tested on: NCI-H2087
In short: as §1

NCI-H358 = tested on: NCI-H358
In short: as §1

NCI-H596 = tested on: NCI-H596
In short: as §1

NCI-H650 = tested on: NCI-H650
In short: as §1

NCI-H661 = tested on: NCI-H661
In short: as §1

NCI-H838 = tested on: NCI-H838
In short: as §1

PC-3 [JPC-3] = tested on: PC-3 [JPC-3]
In short: as §1

SK-MES-1 = tested on: SK-MES-1
In short: as §1

COc1nc(C)cnc1NS(=O)(=O)c1cccnc1-c1ccc(-c2nnco2)cc1 [Zibotentan] + C[C@]1(O)C[C@@H](c2nc(-c3ccc4ccc(-c5ccccc5)nc4c3)c3c(N)nccn32)C1 [Linsitinib] (partner 1 µM)
relative viability (BEN; first compound 0.08 µM): 1.04
relative viability (BEN; first compound 0.253 µM): 0.773
relative viability (BEN; first compound 0.8 µM): 0.958
relative viability (BEN; first compound 2.53 µM): 0.886
relative viability (HCC-78; first compound 0.08 µM): 0.548
relative viability (HCC-78; first compound 0.253 µM): 0.503
relative viability (HCC-78; first compound 0.8 µM): 0.411
relative viability (HCC-78; first compound 2.53 µM): 0.49
relative viability (LC-2-ad; first compound 0.08 µM): 0.904
relative viability (LC-2-ad; first compound 0.253 µM): 0.828
relative viability (LC-2-ad; first compound 0.8 µM): 0.87
relative viability (LC-2-ad; first compound 2.53 µM): 0.976
relative viability (LCLC-97TM1; first compound 0.08 µM): 0.152
relative viability (LCLC-97TM1; first compound 0.253 µM): 0.171
relative viability (LCLC-97TM1; first compound 0.8 µM): 0.175
relative viability (LCLC-97TM1; first compound 2.53 µM): 0.215
relative viability (LK-2; first compound 0.08 µM): 0.709
relative viability (LK-2; first compound 0.253 µM): 0.535
relative viability (LK-2; first compound 2.53 µM): 0.701
relative viability (LU99A; first compound 0.08 µM): 0.602
relative viability (LU99A; first compound 0.253 µM): 0.528
relative viability (LU99A; first compound 0.8 µM): 0.521
relative viability (LU99A; first compound 2.53 µM): 0.602
relative viability (LXF-289; first compound 0.08 µM): 1.01
relative viability (LXF-289; first compound 0.253 µM): 0.998
relative viability (LXF-289; first compound 0.8 µM): 0.969
relative viability (LXF-289; first compound 2.53 µM): 1.01
relative viability (NCI-H1355; first compound 0.08 µM): 0.812
relative viability (NCI-H1355; first compound 0.253 µM): 0.818
relative viability (NCI-H1355; first compound 0.8 µM): 0.824
relative viability (NCI-H1355; first compound 2.53 µM): 0.909
relative viability (NCI-H1651; first compound 0.08 µM): 1.17
relative viability (NCI-H1651; first compound 0.253 µM): 0.949
relative viability (NCI-H1651; first compound 0.8 µM): 0.92
relative viability (NCI-H1651; first compound 2.53 µM): 0.849
relative viability (NCI-H1666; first compound 0.08 µM): 0.656
relative viability (NCI-H1666; first compound 0.253 µM): 0.709
relative viability (NCI-H1666; first compound 0.8 µM): 0.877
relative viability (NCI-H1666; first compound 2.53 µM): 0.825
relative viability (NCI-H1944; first compound 0.08 µM): 1.19
relative viability (NCI-H1944; first compound 0.253 µM): 1.12
relative viability (NCI-H1944; first compound 0.8 µM): 1.1
relative viability (NCI-H1944; first compound 2.53 µM): 1.15
relative viability (NCI-H1975; first compound 0.08 µM): 0.947
relative viability (NCI-H1975; first compound 0.253 µM): 0.895
relative viability (NCI-H1975; first compound 0.8 µM): 0.94
relative viability (NCI-H1975; first compound 2.53 µM): 0.884
relative viability (NCI-H2087; first compound 0.08 µM): 1.2
relative viability (NCI-H2087; first compound 0.253 µM): 0.971
relative viability (NCI-H2087; first compound 0.8 µM): 1.07
relative viability (NCI-H2087; first compound 2.53 µM): 0.914
relative viability (NCI-H358; first compound 0.08 µM): 0.782
relative viability (NCI-H358; first compound 0.8 µM): 0.778
relative viability (NCI-H358; first compound 2.53 µM): 0.805
relative viability (NCI-H596; first compound 0.08 µM): 1.23
relative viability (NCI-H596; first compound 0.253 µM): 1.08
relative viability (NCI-H596; first compound 0.8 µM): 1.03
relative viability (NCI-H596; first compound 2.53 µM): 1.11
relative viability (NCI-H650; first compound 0.08 µM): 1
relative viability (NCI-H650; first compound 0.253 µM): 0.676
relative viability (NCI-H650; first compound 0.8 µM): 1.02
relative viability (NCI-H650; first compound 2.53 µM): 0.881
relative viability (NCI-H661; first compound 0.08 µM): 0.545
relative viability (NCI-H661; first compound 0.253 µM): 0.486
relative viability (NCI-H661; first compound 0.8 µM): 0.518
relative viability (NCI-H661; first compound 2.53 µM): 0.68
relative viability (NCI-H838; first compound 0.08 µM): 1.02
relative viability (NCI-H838; first compound 0.253 µM): 0.957
relative viability (NCI-H838; first compound 0.8 µM): 1
relative viability (NCI-H838; first compound 2.53 µM): 0.959
relative viability (PC-3 [JPC-3]; first compound 0.08 µM): 0.931
relative viability (PC-3 [JPC-3]; first compound 0.253 µM): 0.964
relative viability (PC-3 [JPC-3]; first compound 0.8 µM): 1.01
relative viability (PC-3 [JPC-3]; first compound 2.53 µM): 0.98
relative viability (SK-MES-1; first compound 0.08 µM): 1.12
relative viability (SK-MES-1; first compound 0.253 µM): 1
relative viability (SK-MES-1; first compound 0.8 µM): 1.05
relative viability (SK-MES-1; first compound 2.53 µM): 1.14

COc1nc(C)cnc1NS(=O)(=O)c1cccnc1-c1ccc(-c2nnco2)cc1 [Zibotentan] + Cc1nc(NC(=O)N2CCC[C@H]2C(N)=O)sc1-c1ccnc(C(C)(C)C(F)(F)F)c1 [Alpelisib] (partner 2 µM)
relative viability (BEN; first compound 0.08 µM): 1.17
relative viability (BEN; first compound 0.253 µM): 0.955
relative viability (BEN; first compound 0.8 µM): 1.02
relative viability (BEN; first compound 2.53 µM): 0.922
relative viability (HCC-78; first compound 0.08 µM): 0.342
relative viability (HCC-78; first compound 0.253 µM): 0.342
relative viability (HCC-78; first compound 0.8 µM): 0.23
relative viability (HCC-78; first compound 2.53 µM): 0.374
relative viability (LC-2-ad; first compound 0.08 µM): 0.852
relative viability (LC-2-ad; first compound 0.253 µM): 0.869
relative viability (LC-2-ad; first compound 0.8 µM): 0.92
relative viability (LC-2-ad; first compound 2.53 µM): 1.03
relative viability (LCLC-97TM1; first compound 0.08 µM): 0.309
relative viability (LCLC-97TM1; first compound 0.253 µM): 0.238
relative viability (LCLC-97TM1; first compound 0.8 µM): 0.183
relative viability (LCLC-97TM1; first compound 2.53 µM): 0.264
relative viability (LK-2; first compound 0.08 µM): 1.08
relative viability (LK-2; first compound 0.253 µM): 0.911
relative viability (LK-2; first compound 0.8 µM): 0.889
relative viability (LK-2; first compound 2.53 µM): 1.46
relative viability (LU99A; first compound 0.08 µM): 0.516
relative viability (LU99A; first compound 0.253 µM): 0.58
relative viability (LU99A; first compound 0.8 µM): 0.545
relative viability (LU99A; first compound 2.53 µM): 0.58
relative viability (LXF-289; first compound 0.08 µM): 1.03
relative viability (LXF-289; first compound 0.253 µM): 1.04
relative viability (LXF-289; first compound 0.8 µM): 1.11
relative viability (LXF-289; first compound 2.53 µM): 1.09
relative viability (NCI-H1355; first compound 0.08 µM): 0.942
relative viability (NCI-H1355; first compound 0.253 µM): 0.898
relative viability (NCI-H1355; first compound 0.8 µM): 0.825
relative viability (NCI-H1355; first compound 2.53 µM): 0.794
relative viability (NCI-H1651; first compound 0.08 µM): 0.882
relative viability (NCI-H1651; first compound 0.253 µM): 0.88
relative viability (NCI-H1651; first compound 0.8 µM): 0.88
relative viability (NCI-H1651; first compound 2.53 µM): 1.04
relative viability (NCI-H1666; first compound 0.08 µM): 1.12
relative viability (NCI-H1666; first compound 0.253 µM): 0.724
relative viability (NCI-H1666; first compound 0.8 µM): 1.18
relative viability (NCI-H1666; first compound 2.53 µM): 0.993
relative viability (NCI-H1944; first compound 0.08 µM): 0.915
relative viability (NCI-H1944; first compound 0.253 µM): 0.808
relative viability (NCI-H1944; first compound 0.8 µM): 0.756
relative viability (NCI-H1944; first compound 2.53 µM): 0.888
relative viability (NCI-H1975; first compound 0.08 µM): 0.635
relative viability (NCI-H1975; first compound 0.253 µM): 0.548
relative viability (NCI-H1975; first compound 0.8 µM): 0.642
relative viability (NCI-H1975; first compound 2.53 µM): 0.585
relative viability (NCI-H2087; first compound 0.08 µM): 1.06
relative viability (NCI-H2087; first compound 0.253 µM): 1.13
relative viability (NCI-H2087; first compound 0.8 µM): 1.03
relative viability (NCI-H2087; first compound 2.53 µM): 1.05
relative viability (NCI-H358; first compound 0.08 µM): 1
relative viability (NCI-H358; first compound 0.8 µM): 0.891
relative viability (NCI-H358; first compound 2.53 µM): 0.848
relative viability (NCI-H596; first compound 0.08 µM): 0.532
relative viability (NCI-H596; first compound 0.253 µM): 0.482
relative viability (NCI-H596; first compound 0.8 µM): 0.485
relative viability (NCI-H596; first compound 2.53 µM): 0.484
relative viability (NCI-H650; first compound 0.08 µM): 1.13
relative viability (NCI-H650; first compound 0.253 µM): 1.06
relative viability (NCI-H650; first compound 0.8 µM): 1.03
relative viability (NCI-H650; first compound 2.53 µM): 1.16
relative viability (NCI-H661; first compound 0.08 µM): 0.717
relative viability (NCI-H661; first compound 0.253 µM): 0.49
relative viability (NCI-H661; first compound 0.8 µM): 0.569
relative viability (NCI-H661; first compound 2.53 µM): 0.578
relative viability (NCI-H838; first compound 0.08 µM): 0.957
relative viability (NCI-H838; first compound 0.253 µM): 1.01
relative viability (NCI-H838; first compound 0.8 µM): 0.956
relative viability (NCI-H838; first compound 2.53 µM): 1.05
relative viability (PC-3 [JPC-3]; first compound 0.08 µM): 1.01
relative viability (PC-3 [JPC-3]; first compound 0.253 µM): 1.06
relative viability (PC-3 [JPC-3]; first compound 0.8 µM): 1.05
relative viability (PC-3 [JPC-3]; first compound 2.53 µM): 1.04
relative viability (SK-MES-1; first compound 0.08 µM): 0.947
relative viability (SK-MES-1; first compound 0.253 µM): 0.871
relative viability (SK-MES-1; first compound 0.8 µM): 0.948
relative viability (SK-MES-1; first compound 2.53 µM): 0.989
